We go through 122 molecules from a melting point compilation (Tetko et al.).

`NC(=O)c1c[nH]cn1` registered a melting point of 194 to 196 °C.
`Clc1cnc2ccccc2n1` showed a melting point of 47 to 50 °C.
Turning to `Cn1nc(Br)c2c(Cl)ncnc21`, the melting point is 115 to 117 °C.
For `CC(C)(C#N)C(=O)O` the value was 54 to 56 °C; for `COCCNC(N)=O`, 72 to 74 °C; for `O=C(O)CN1Cc2ccccc2C1=O`, 217 to 219 °C.
Molecule `O=C(O)CCCOc1ccc(F)cc1F` came in with a melting point of 74 to 76 °C.
To `Cn1cc(Br)c2cc[nH]c(=O)c21` belongs 195 to 197 °C; to `O=C(O)c1ccc(S(=O)(=O)CC(F)F)cc1`, 212 to 214 °C.
For `CCNS(=O)(=O)c1cc(F)ccc1F` the value was 68 to 70 °C.
To `CCc1cc(C(=O)O)sc1C` belongs 108 to 110 °C; to `COc1ccc(NC(=O)CSCC(=O)O)cc1`, 112 to 114 °C.
`O=C(c1ccc(S(=O)(=O)Cl)cc1)N1CCOCC1` came in with a melting point of 110 to 112 °C.
To `CC(C)c1ccc2c(c1)[C@@H](O)CCC2` belongs 89 to 91 °C.
For `CC(Cl)c1nc2cc(Cl)ccc2n1Cc1ccccc1` (configuration not stated) the value was 110 to 112 °C; for `CC(C)C(O)c1nccn1C` (configuration not stated), 80 to 82 °C; for `O=C(O)Cc1cc2c(cc1[N+](=O)[O-])OCCO2`, 219 to 221 °C.
To `O=C(Nc1ccc(F)cc1)N1CCC(=NO)CC1` belongs 183 to 185 °C; to `Nc1cc(-c2ccccc2Br)no1`, 74 to 76 °C.
`CCC(C)c1ccc(-n2c(S)nc3cc(Cl)ccc3c2=O)cc1` (configuration not stated) showed a melting point of 242 to 244 °C.
`O=C(O)C1CCCN(C(=O)Cc2ccccc2)C1` (configuration not stated) registered a melting point of 112 to 114 °C.
To `Cc1ccc2ncc(C(=O)O)n2c1` belongs 177 to 179 °C; to `O=S(=O)(c1cccc(-c2nnc(S)n2Cc2ccc(F)cc2)c1)N1CCOCC1`, 231 to 233 °C.
For the molecule `Clc1ccc(-c2nnc(Cl)c3ccccc23)cc1Cl`, the melting point was 219 to 221 °C.
To `Nc1cc(-c2ccco2)no1` belongs 95 to 99 °C.
To `CCOC(=O)c1sc(N)c(C(N)=O)c1C` belongs 197 to 199 °C; to `CC(C)n1ncc(C(=O)O)c1C(F)(F)F`, 125 to 127 °C.
Molecule `O=S1(=O)CCN(S(=O)(=O)Cl)CC1` had a melting point of 177 to 179 °C.
To `Oc1ccnc2cc(F)c(F)cc12` belongs 298 to 300 °C; to `Cc1c(C)n(CCc2ccccn2)c2[nH]cnc(=N)c12`, 132 to 134 °C.
To `Clc1nc(CN2CCCCC2)nc2scc(-c3cccs3)c12` belongs 89 to 91 °C; to `c1ccc2c(c1)CC(n1ccnc1)CN2` (configuration not stated), 110 to 112 °C; to `NC(CN1CCc2ccccc21)=NO`, 93 to 95 °C.
The molecule `BrCc1cnn(-c2ccccc2)n1` displayed a melting point of 44 to 46 °C.
For `NC(=O)c1ccsc1NC(=O)CCCl` the value was 171 to 173 °C; for `CCN(CC)c1ccc(S(=O)(=O)N2CCOCC2)cc1NC(=O)CCl`, 99 to 101 °C.
`CCS(=O)(=O)CCOc1ccc(S(=O)(=O)Cl)cc1` gave a melting point of 92 to 94 °C.
For `COC(=O)c1cc(N)cc(F)c1F` the value was 89 to 91 °C; for `COc1ccccc1N(CCC#N)C(=O)C(C)Cl` (configuration not stated), 71 to 73 °C; for `Cn1c(C=O)nc2cc(C(F)(F)F)ccc21`, 111 to 113 °C.
Consider `Cc1cc(=O)[nH]n1C`, for which the melting point was in the range of 169 to 171 °C.
As for `OCc1nc(-c2ccco2)no1`, the melting point lay within 123 to 125 °C.
To `Cc1cc2nc(-c3ccccc3)cc(C(=O)O)c2cc1C` belongs 251 to 253 °C.
Take `O=C(O)c1ncoc1C1CCCO1` (configuration not stated): the melting point is 125 to 127 °C.
For `O=Cc1cn(-c2ccccc2)nc1-c1cccnc1` the value was 110 to 112 °C; for `Clc1noc(-c2ccsc2)n1`, 108 to 110 °C.
`O=C(O)CCCn1cncn1`: the melting point is 140 to 142 °C.
Take `Cc1cc2ccccc2nc1Br`: the melting point fell in the range of 94 to 96 °C.
To `COc1ccsc1C(=O)O` belongs 179 to 181 °C.
For `Cc1ccc(N)c(Cl)c1Cl` the value was 45 to 47 °C; for `CC(C)(C)OC(=O)NC1CCN(Cc2cc(Cl)cc(Cl)c2)CC1`, 145 to 147 °C; for `COc1ccc2nc(C)cc(Cl)c2c1`, 99 to 101 °C.
`Cc1cc(C(=O)O)c2c(C)nn(-c3ccccc3)c2n1` yielded a melting point of 195 to 197 °C.
In turn, `O=C(O)CC1CCc2ccccc21` (configuration not stated) gave a melting point of 58 to 60 °C.
`CCCSc1ccc([N+](=O)[O-])c(N)c1` gave a melting point of 71 to 74 °C.
To `NC(=S)Nc1ccc2c(c1)CCC2` belongs 179 to 181 °C; to `Cc1cc(C)n2nc(C)c(C(=O)O)c2n1`, 226 to 228 °C.
For `COc1cccc(Cl)c1C(=O)O`, the melting point is 140 to 142 °C.
To `Cc1ccc2nc(C3CC3)cc(C(=O)O)c2c1` belongs 207 to 209 °C.
For the molecule `Cc1cc(Cl)c2c(c1)C(=O)C(=O)N2`, the melting point lay in the range of 173 to 175 °C.
To `Cc1ccc(S(=O)(=O)NC(C(=O)O)C(C)O)cc1` (configuration not stated) belongs 177 to 179 °C.
In turn, `O=C(O)c1ccnc(OC2CCCCC2)c1` returned a melting point of 123 to 125 °C.
To `N#Cc1cccc(-c2ncn[nH]2)c1` belongs 144 to 146 °C.
The molecule `CCc1ccc(C(C)=CC(=O)O)cc1` returned a melting point of 104 to 106 °C.
In turn, `CN(C)C(=O)c1ccc(C(=O)O)cc1` had a melting point of 178 to 180 °C.
For `COc1cc(C=O)cc(Cl)c1OC(C)C` the value was 34 to 36 °C; for `C=CCn1c(N)c(C(=O)OCC)sc1=S`, 118 to 120 °C.
To `N#CCS(=O)(=O)N1CCCCC1` belongs 137 to 139 °C; to `O=C(CCCl)Nc1ccc([N+](=O)[O-])cc1`, 171 to 173 °C.
For `Nc1nnc(C2CC2)o1` the value was 170 to 172 °C; for `OCc1c(Cl)nc2ccccn12`, 177 to 179 °C; for `C#CCOc1c(Cl)cc(C=O)cc1OC`, 106 to 108 °C.
`COc1ccccc1-c1ccc(C=O)cc1` registered a melting point of 49 to 51 °C.
`O=C(O)c1cccc2[nH]c(=O)oc12` returned a melting point of 329 to 331 °C.
For `N#Cc1ccccc1CN1C(=O)CCC1=O` the value was 122 to 124 °C.
For `CNC1=NS(=O)(=O)c2ccccc21` the value was 269 to 271 °C; for `O=C(O)C1(c2cccc(Br)c2)CCCCC1`, 164 to 166 °C; for `O=C(O)c1cnc2c(c1)c(C1CC1)nn2-c1ccccc1`, 250 to 252 °C.
For `CN(C)C(=O)c1cccc(Br)c1` the value was 52 to 54 °C.
Take `O=c1[nH]c2c(c(=O)[nH]1)CCCC2`: the melting point was 304 to 306 °C.
For `O=C(O)C1CCN(C(=O)C2(c3ccccc3)CCC2)CC1` the value was 146 to 148 °C; for `O=C(O)c1cn(-c2ccc(Br)cc2C(F)(F)F)nn1`, 139 to 141 °C; for `O=C(O)C1CCCN1C(=O)Cc1ccccc1` (configuration not stated), 147 to 149 °C.
Molecule `Cn1ccnc1C(=O)c1ccc(Cl)c([N+](=O)[O-])c1` yielded a melting point of 145 to 147 °C.
To `CC(O)C(NC(=O)C1CC1)C(=O)O` (configuration not stated) belongs 138 to 140 °C; to `Cc1cc(N)ccc1S(C)(=O)=O`, 144 to 146 °C.
Molecule `O=C1CCCCCN1CO` displayed a melting point of 63 to 67 °C.
In turn, `CNC(=O)CS(=O)(=O)c1ccc(C(=O)O)cc1` returned a melting point of 249 to 251 °C.
For `CCCCCCCOc1ccc(C=O)cc1OCC` the value was 43 to 47 °C; for `N#CCC(=O)NCc1ccccc1`, 125 to 127 °C.
For `Nc1ccc2[nH]c(-c3ccccn3)nc2c1` the value was 189 to 191 °C; for `Cc1ccc(C(N)c2cccc(S(C)(=O)=O)c2)cc1` (configuration not stated), 73 to 75 °C.
For `Cn1c(CC#N)nc2ccccc21` the value was 129 to 131 °C; for `O=[N+]([O-])C=Cc1cccc2ccccc12`, 87 to 89 °C.
The molecule `CCC(=O)c1cnn(C)c1` gave a melting point of 44 to 46 °C.
To `Nc1scnc1-c1ccccc1` belongs 130 to 132 °C; to `COC(=O)N(C)c1ccc([N+](=O)[O-])cc1`, 108 to 110 °C; to `CC(=O)NC1CCC(=O)CC1`, 136 to 140 °C.
The molecule `CSc1cc(Br)ccc1C=O` gave a melting point of 81 to 83 °C.
For `Cc1cc(N)n(-c2ccc(OC(F)(F)F)cc2)n1` the value was 118 to 120 °C.
`Nc1ccc(-c2ncc3n2CCCC3)cc1` displayed a melting point of 182 to 184 °C.
The molecule `c1cc(-c2nc3cc4c(cc3[nH]2)OCCO4)cs1` displayed a melting point of 279 to 281 °C.
`O=Cc1cc(Br)c2c(c1)OCCCO2` yielded a melting point of 73 to 75 °C.
For `C#CCNC(=O)CN1C(=O)C(=O)c2cc(Cl)ccc21` the value was 267 to 269 °C; for `O=C(Nc1nncs1)C1CCNCC1`, 202 to 204 °C; for `CC1Oc2ccc(C(=O)CBr)cc2NC1=O` (configuration not stated), 147 to 149 °C.
For `Ic1ccccc1-c1nn[nH]n1` the value was 217 to 219 °C; for `Ic1cnc2ccccc2c1`, 57 to 59 °C.
With `Cc1c(C(=O)O)cnn1C(C)C`, the melting point is 142 to 144 °C.
To `Cc1nc(-c2cc(C(=O)O)co2)cs1` belongs 186 to 188 °C.
Consider `O=C(O)CN(CCCCCCN(CC(=O)O)CC(=O)O)CC(=O)O`, for which the melting point is 237 to 241 °C.
Molecule `NC(Cc1cccnc1)=NO` returned a melting point of 149 to 151 °C.
For `Cc1c(CCl)cc(C(=O)O)cc1CCl` the value was 157 to 159 °C; for `Oc1ccccc1C1=NCCN1`, 199 to 201 °C.
With `CC(C)(C)C1CCc2sc(-c3nnc(S)o3)cc2C1` (configuration not stated), the melting point is 176 to 178 °C.
Molecule `Nc1cccc(C(=O)CCC(=O)O)c1` gave a melting point of 126 to 128 °C.
To `Nc1cccc(C(=O)Nc2ccncc2)c1` belongs 224 to 226 °C; to `CC(=O)c1c(C#N)c2n(c1C)CCC2`, 132 to 134 °C; to `OCC1CN(Cc2ccccc2)CC1CO` (configuration not stated), 94 to 96 °C.
To `Sc1nnc(COc2ccc(Cl)cc2)n1Cc1ccccc1` belongs 211 to 213 °C.
As for `CC(C)(C)C(=O)NCCc1ccc(S(N)(=O)=O)s1`, the melting point was in the range of 144 to 146 °C.
To `CS(=O)(=O)c1ccccc1F` belongs 49 to 53 °C.

Usually melting point stands for the temperature, or range, at which the solid turns liquid.
